According to patent US11173151B2, “Substituted triazole derivatives and uses thereof” (BAYER AKTIENGESELLSCHAFT, priority 2017, dated 2021):

Key:
human V1a receptor = molecular target: T1, human V1a receptor (Homo sapiens, UniProt P37288); assay: Cellular in vitro assay for determining vasopressin receptor activity, V1a receptor cell line (CHO, aequorin luminescence); assay type: cell-based; conditions: for IC50: CHO cell line transfected with human V1a receptor, [Arg]-vasopressin at EC50 concentration, read-out: IC50 hV1a; for ratio IC50 hV2/hV1a: selectivity ratio IC50 hV2 / IC50 hV1a
T1 construct: expressed in transfected cells; host or cells: CHO K1 (ATCC), also stably transfected with a modified aequorin
How it was run: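 IC50 from inhibition of [Arg]-vasopressin (EC50 concentration)-evoked aequorin luminescence in CHO K1 cells, with 10-min compound pretreatment.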

human V2 receptor = molecular target: T2, human V2 receptor (Homo sapiens, UniProt P30518); assay: Cellular in vitro assay for determining vasopressin receptor activity, V2 receptor cell line (CHO, CRE-luciferase); assay type: cell-based; conditions: CHO cell line transfected with human V2 receptor; [Arg8]-vasopressin at EC50 concentration, 3 hours; read-out: IC50 hV2
T2 construct: expressed in transfected cells; host or cells: CHO K1 (ATCC) expressing firefly luciferase under a CRE-responsive promoter
T2 sequence (P30518 whole entry): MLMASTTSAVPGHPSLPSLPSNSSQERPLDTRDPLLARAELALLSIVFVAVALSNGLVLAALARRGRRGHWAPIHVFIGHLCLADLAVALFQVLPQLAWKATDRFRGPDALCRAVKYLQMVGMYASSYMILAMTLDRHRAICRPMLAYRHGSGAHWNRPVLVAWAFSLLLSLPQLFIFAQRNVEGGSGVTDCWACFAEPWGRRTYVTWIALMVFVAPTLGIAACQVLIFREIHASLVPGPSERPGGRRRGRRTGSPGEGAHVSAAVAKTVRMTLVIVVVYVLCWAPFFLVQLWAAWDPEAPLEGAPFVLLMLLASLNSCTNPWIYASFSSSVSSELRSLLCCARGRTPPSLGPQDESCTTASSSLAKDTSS

T1 sequence (P37288 whole entry): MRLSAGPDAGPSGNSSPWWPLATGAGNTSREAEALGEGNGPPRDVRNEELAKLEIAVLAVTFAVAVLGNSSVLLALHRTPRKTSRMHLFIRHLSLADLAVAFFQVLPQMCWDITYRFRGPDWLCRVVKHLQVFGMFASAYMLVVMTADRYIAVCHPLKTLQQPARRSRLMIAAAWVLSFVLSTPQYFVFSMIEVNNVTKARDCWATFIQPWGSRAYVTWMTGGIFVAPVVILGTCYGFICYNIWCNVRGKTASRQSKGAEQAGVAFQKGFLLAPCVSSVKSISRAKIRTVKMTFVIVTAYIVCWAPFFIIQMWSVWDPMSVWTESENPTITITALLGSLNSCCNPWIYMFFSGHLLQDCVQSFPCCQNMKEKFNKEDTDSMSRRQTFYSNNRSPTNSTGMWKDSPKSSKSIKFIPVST

Cc1ccc(CNC(=O)c2ccccc2-n2cnc(Cn3nc(-c4ccc(Cl)cc4)n(C[C@H](O)C(F)(F)F)c3=O)n2)o1 [Example 209, 2-[3-({3-(4-Chlorophenyl)-5-oxo-4-[(2S)-3,3,3-trifluoro-2-hydroxypropyl]-4,5-dihydro-1H-1,2,4-triazol-1-yl}methyl)-1H-1,2,4-triazol-1-yl]-N-[(5-methylfuran-2-yl)methyl]benzamide]
IC50 (human V1a receptor): 5.65 nM
ratio IC50 hV2/hV1a (human V1a receptor): 23.0
IC50 (human V2 receptor): 130 nM

Cn1nccc1NC(=O)c1ccccc1-n1cnc(Cn2nc(-c3ccc(Cl)cc3)n(C[C@H](O)C(F)(F)F)c2=O)n1 [Example 210, 2-[3-({3-(4-Chlorophenyl)-5-oxo-4-[(2S)-3,3,3-trifluoro-2-hydroxypropyl]-4,5-dihydro-1H-1,2,4-triazol-1-yl}methyl)-1H-1,2,4-triazol-1-yl]-N-(1-methyl-1H-pyrazol-5-yl)benzamide]
IC50 (human V1a receptor): 1.65 nM
ratio IC50 hV2/hV1a (human V1a receptor): 457.6
IC50 (human V2 receptor): 755 nM

O=C(Nc1ccc(F)cn1)c1ccccc1-n1cnc(Cn2nc(-c3ccc(Cl)cc3)n(C[C@H](O)C(F)(F)F)c2=O)n1 [Example 211, 2-[3-({3-(4-Chlorophenyl)-5-oxo-4-[(2S)-3,3,3-trifluoro-2-hydroxypropyl]-4,5-dihydro-1H-1,2,4-triazol-1-yl}methyl)-1H-1,2,4-triazol-1-yl]-N-(5-fluoropyridin-2-yl)benzamide]
IC50 (human V1a receptor): 6.65 nM
ratio IC50 hV2/hV1a (human V1a receptor): 25.6
IC50 (human V2 receptor): 170 nM

O=C(Nc1cc(O)[nH]n1)c1ccccc1-n1cnc(Cn2nc(-c3ccc(Cl)cc3)n(C[C@H](O)C(F)(F)F)c2=O)n1 [Example 212, 2-[3-({3-(4-Chlorophenyl)-5-oxo-4-[(2S)-3,3,3-trifluoro-2-hydroxypropyl]-4,5-dihydro-1H-1,2,4-triazol-1-yl}methyl)-1H-1,2,4-triazol-1-yl]-N-(5-hydroxy-1H-pyrazol-3-yl)benzamide]
IC50 (human V1a receptor): 23.5 nM
ratio IC50 hV2/hV1a (human V1a receptor): 24.5
IC50 (human V2 receptor): 575 nM

Cc1cc(NC(=O)c2ccccc2-n2cnc(Cn3nc(-c4ccc(Cl)cc4)n(C[C@H](O)C(F)(F)F)c3=O)n2)n(C)n1 [Example 213, 2-[3-({3-(4-Chlorophenyl)-5-oxo-4-[(2S)-3,3,3-trifluoro-2-hydroxypropyl]-4,5-dihydro-1H-1,2,4-triazol-1-yl}methyl)-1H-1,2,4-triazol-1-yl]-N-(1,3-dimethyl-1H-pyrazol-5-yl)benzamide]
IC50 (human V1a receptor): 7.55 nM
ratio IC50 hV2/hV1a (human V1a receptor): 178.1
IC50 (human V2 receptor): 1340 nM

Cc1n[nH]c(C)c1NC(=O)c1ccccc1-n1cnc(Cn2nc(-c3ccc(Cl)cc3)n(C[C@H](O)C(F)(F)F)c2=O)n1 [Example 214, 2-[3-({3-(4-Chlorophenyl)-5-oxo-4-[(2S)-3,3,3-trifluoro-2-hydroxypropyl]-4,5-dihydro-1H-1,2,4-triazol-1-yl}methyl)-1H-1,2,4-triazol-1-yl]-N-(3,5-dimethyl-1H-pyrazol-4-yl)benzamide]
IC50 (human V1a receptor): 1.65 nM
ratio IC50 hV2/hV1a (human V1a receptor): 854.5
IC50 (human V2 receptor): 1410 nM

CCn1nccc1NC(=O)c1ccccc1-n1cnc(Cn2nc(-c3ccc(Cl)cc3)n(C[C@H](O)C(F)(F)F)c2=O)n1 [Example 215, 2-[3-({3-(4-Chlorophenyl)-5-oxo-4-[(2S)-3,3,3-trifluoro-2-hydroxypropyl]-4,5-dihydro-1H-1,2,4-triazol-1-yl}methyl)-1H-1,2,4-triazol-1-yl]-N-(1-ethyl-1H-pyrazol-5-yl)benzamide]
IC50 (human V1a receptor): 11.7 nM
ratio IC50 hV2/hV1a (human V1a receptor): 102.1
IC50 (human V2 receptor): 1200 nM

CC(NC(=O)c1ccccc1-n1cnc(Cn2nc(-c3ccc(Cl)cc3)n(C[C@H](O)C(F)(F)F)c2=O)n1)c1ccon1 (stereo partly drawn) [Example 216, 2-[3-({3-(4-Chlorophenyl)-5-oxo-4-[(2S)-3,3,3-trifluoro-2-hydroxypropyl]-4,5-dihydro-1H-1,2,4-triazol-1-yl}methyl)-1H-1,2,4-triazol-1-yl]-N-[1-(1,2-oxazol-3-yl)ethyl]benzamide]
IC50 (human V1a receptor): 12 nM
ratio IC50 hV2/hV1a (human V1a receptor): 14.2
IC50 (human V2 receptor): 170 nM

O=C(Nc1ccc(F)cc1O)c1ccccc1-n1cnc(Cn2nc(-c3ccc(Cl)cc3)n(C[C@H](O)C(F)(F)F)c2=O)n1 [Example 217, 2-[3-({3-(4-Chlorophenyl)-5-oxo-4-[(2S)-3,3,3-trifluoro-2-hydroxypropyl]-4,5-dihydro-1H-1,2,4-triazol-1-yl}methyl)-1H-1,2,4-triazol-1-yl]-N-(4-fluoro-2-hydroxyphenyl)benzamide]
IC50 (human V1a receptor): 3.95 nM
ratio IC50 hV2/hV1a (human V1a receptor): 23.7
IC50 (human V2 receptor): 93.5 nM

O=C(Nc1n[nH]cc1Cl)c1ccccc1-n1cnc(Cn2nc(-c3ccc(Cl)cc3)n(C[C@H](O)C(F)(F)F)c2=O)n1 [Example 218, 2-[3-({3-(4-Chlorophenyl)-5-oxo-4-[(2S)-3,3,3-trifluoro-2-hydroxypropyl]-4,5-dihydro-1H-1,2,4-triazol-1-yl}methyl)-1H-1,2,4-triazol-1-yl]-N-(4-chloro-1H-pyrazol-3-yl)benzamide]
IC50 (human V1a receptor): 0.32 nM
ratio IC50 hV2/hV1a (human V1a receptor): 24.4
IC50 (human V2 receptor): 7.8 nM

O=C(Nc1cccc[n+]1[O-])c1ccccc1-n1cnc(Cn2nc(-c3ccc(Cl)cc3)n(C[C@H](O)C(F)(F)F)c2=O)n1 [Example 219, 2-[3-({3-(4-Chlorophenyl)-5-oxo-4-[(2S)-3,3,3-trifluoro-2-hydroxypropyl]-4,5-dihydro-1H-1,2,4-triazol-1-yl}methyl)-1H-1,2,4-triazol-1-yl]-N-(1-oxidopyridin-2-yl)benzamide]
IC50 (human V1a receptor): 21 nM
ratio IC50 hV2/hV1a (human V1a receptor): 2.0
IC50 (human V2 receptor): 41.5 nM

Cc1cncc(NC(=O)c2ccccc2-n2cnc(Cn3nc(-c4ccc(Cl)cc4)n(C[C@H](O)C(F)(F)F)c3=O)n2)c1 [Example 220, 2-[3-({3-(4-Chlorophenyl)-5-oxo-4-[(2S)-3,3,3-trifluoro-2-hydroxypropyl]-4,5-dihydro-1H-1,2,4-triazol-1-yl}methyl)-1H-1,2,4-triazol-1-yl]-N-(5-methylpyridin-3-yl)benzamide]
IC50 (human V1a receptor): 3.65 nM
ratio IC50 hV2/hV1a (human V1a receptor): 58.9
IC50 (human V2 receptor): 215 nM

Cc1ncccc1NC(=O)c1ccccc1-n1cnc(Cn2nc(-c3ccc(Cl)cc3)n(C[C@H](O)C(F)(F)F)c2=O)n1 [Example 221, 2-[3-({3-(4-Chlorophenyl)-5-oxo-4-[(2S)-3,3,3-trifluoro-2-hydroxypropyl]-4,5-dihydro-1H-1,2,4-triazol-1-yl}methyl)-1H-1,2,4-triazol-1-yl]-N-(2-methylpyridin-3-yl)benzamide]
IC50 (human V1a receptor): 4.95 nM
ratio IC50 hV2/hV1a (human V1a receptor): 92.9
IC50 (human V2 receptor): 460 nM

CC1CCC(C)C1NC(=O)c1ccccc1-n1cnc(Cn2nc(-c3ccc(Cl)cc3)n(C[C@H](O)C(F)(F)F)c2=O)n1 (stereo partly drawn) [Example 222, 2-[3-({3-(4-Chlorophenyl)-5-oxo-4-[(2S)-3,3,3-trifluoro-2-hydroxypropyl]-4,5-dihydro-1H-1,2,4-triazol-1-yl}methyl)-1H-1,2,4-triazol-1-yl]-N-(2,5-dimethylcyclopentyl)benzamide]
IC50 (human V1a receptor): 4.85 nM
ratio IC50 hV2/hV1a (human V1a receptor): 38.1
IC50 (human V2 receptor): 185 nM

O=C(Nc1nccs1)c1ccccc1-n1cnc(Cn2nc(-c3ccc(Cl)cc3)n(C[C@H](O)C(F)(F)F)c2=O)n1 [Example 223, 2-[3-({3-(4-Chlorophenyl)-5-oxo-4-[(2S)-3,3,3-trifluoro-2-hydroxypropyl]-4,5-dihydro-1H-1,2,4-triazol-1-yl}methyl)-1H-1,2,4-triazol-1-yl]-N-(1,3-thiazol-2-yl)benzamide]
IC50 (human V1a receptor): 1.5 nM
ratio IC50 hV2/hV1a (human V1a receptor): 0.8
IC50 (human V2 receptor): 1.15 nM

NC(=O)CNC(=O)c1ccccc1-n1cnc(Cn2nc(-c3ccc(Cl)cc3)n(C[C@H](O)C(F)(F)F)c2=O)n1 [Example 225, N-(2-Amino-2-oxoethyl)-2-[3-({3-(4-chlorophenyl)-5-oxo-4-[(2S)-3,3,3-trifluoro-2-hydroxypropyl]-4,5-dihydro-1H-1,2,4-triazol-1-yl}methyl)-1H-1,2,4-triazol-1-yl]benzamide]
IC50 (human V1a receptor): 5.5 nM
ratio IC50 hV2/hV1a (human V1a receptor): 38.2
IC50 (human V2 receptor): 210 nM

O=C(Nc1ccc(Cl)nc1)c1ccccc1-n1cnc(Cn2nc(-c3ccc(Cl)cc3)n(C[C@H](O)C(F)(F)F)c2=O)n1 [Example 226, 2-[3-({3-(4-Chlorophenyl)-5-oxo-4-[(2S)-3,3,3-trifluoro-2-hydroxypropyl]-4,5-dihydro-1H-1,2,4-triazol-1-yl}methyl)-1H-1,2,4-triazol-1-yl]-N-(6-chloropyridin-3-yl)benzamide]
IC50 (human V1a receptor): 1.3 nM
ratio IC50 hV2/hV1a (human V1a receptor): 5.7
IC50 (human V2 receptor): 7.45 nM

O=C(Nc1cccc(O)c1)c1ccccc1-n1cnc(Cn2nc(-c3ccc(Cl)cc3)n(C[C@H](O)C(F)(F)F)c2=O)n1 [Example 227, 2-[3-({3-(4-Chlorophenyl)-5-oxo-4-[(2S)-3,3,3-trifluoro-2-hydroxypropyl]-4,5-dihydro-1H-1,2,4-triazol-1-yl}methyl)-1H-1,2,4-triazol-1-yl]-N-(3-hydroxyphenyl)benzamide]
IC50 (human V1a receptor): 1.21 nM
ratio IC50 hV2/hV1a (human V1a receptor): 55.8
IC50 (human V2 receptor): 67.5 nM

Cc1cc(NC(=O)c2ccccc2-n2cnc(Cn3nc(-c4ccc(Cl)cc4)n(C[C@H](O)C(F)(F)F)c3=O)n2)ccc1F [Example 228, 2-[3-({3-(4-Chlorophenyl)-5-oxo-4-[(2S)-3,3,3-trifluoro-2-hydroxypropyl]-4,5-dihydro-1H-1,2,4-triazol-1-yl}methyl)-1H-1,2,4-triazol-1-yl]-N-(4-fluoro-3-methylphenyl)benzamide]
IC50 (human V1a receptor): 5.65 nM
ratio IC50 hV2/hV1a (human V1a receptor): 26.5
IC50 (human V2 receptor): 150 nM

Cc1ccc(F)cc1NC(=O)c1ccccc1-n1cnc(Cn2nc(-c3ccc(Cl)cc3)n(C[C@H](O)C(F)(F)F)c2=O)n1 [Example 229, 2-[3-({3-(4-Chlorophenyl)-5-oxo-4-[(2S)-3,3,3-trifluoro-2-hydroxypropyl]-4,5-dihydro-1H-1,2,4-triazol-1-yl}methyl)-1H-1,2,4-triazol-1-yl]-N-(5-fluoro-2-methylphenyl)benzamide]
IC50 (human V1a receptor): 2.35 nM
ratio IC50 hV2/hV1a (human V1a receptor): 21.1
IC50 (human V2 receptor): 49.5 nM
